Data from PMC4183655, “Discovery and Optimization of Small-Molecule Ligands for the CBP/p300 Bromodomains” (Journal of the American Chemical Society, 2014).
Like-named read-outs stand apart in the source and are kept apart here.

Assays:
BRD4(1) [1] = molecular target: T1, BRD4(1) (Homo sapiens, UniProt O60885); assay: DSF (ΔTm) thermal stability assay; assay type: binding; settings: compound concentration 10 μM; mean ± SEM (number of measurements)
CBP [2] = molecular target: T2, CBP (Homo sapiens, UniProt Q92793); assay: DSF (ΔTm) thermal stability assay; assay type: binding; settings: compound concentration 10 μM; mean ± SEM (number of measurements)
T2 sequence (Q92793 1085-1192 limits assumed): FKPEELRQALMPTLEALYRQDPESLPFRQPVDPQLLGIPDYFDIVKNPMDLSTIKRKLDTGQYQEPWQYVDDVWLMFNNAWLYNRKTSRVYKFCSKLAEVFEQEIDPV

BRD4(1) [3] = molecular target: T1, BRD4(1); assay: Isothermal titration calorimetry (ITC); settings: for Selectivity for CBP over BRD4(1): from ITC Kd values; for ITC 9T∆S, BRD4(1): At T = 298.15 K
CBP [4] = molecular target: T2, CBP; assay: Isothermal titration calorimetry (ITC); settings: for ITC 9T∆S, CBP: At T = 298.15 K
CBP [5] = molecular target: T2, CBP; assay: Peptide displacement AlphaScreen; assay type: binding
[6] = test system: GFP-tagged 3 × CBP BRD construct; assay: Fluorescence recovery after photo-bleaching (FRAP) assay; settings: HeLa cells
BRD4(1) [7] = molecular target: T1, BRD4(1); assay: Peptide displacement AlphaScreen; assay type: binding
BRD4(1) [8] = settings: cited from earlier work
CBP [9] = settings: cited from earlier work
CBP BRD = settings: cited from earlier work
[10] = mean ± SEM (number of measurements), read-out: CBP AlphaScreen pIC50 (converted)

Row | Compound | ΔTm at 10 µM (CBP [2]) | ITC N (molar binding ratio of the ligand-protein interaction), BRD4(1) (BRD4(1) [3]) | ITC ∆G, BRD4(1) (BRD4(1) [3]) | ITC ∆H, BRD4(1) (BRD4(1) [3]) | ITC 9T∆S, BRD4(1) (BRD4(1) [3]) | ITC N (molar binding ratio of the ligand-protein interaction), CBP (CBP [4]) | ITC ∆G, CBP (CBP [4]) | ITC ∆H, CBP (CBP [4]) | ITC 9T∆S, CBP (CBP [4]) | Kd (CBP [4]; ITC Ka, CBP) | further results
1 | COc1ccc(CCc2cc3cc(-c4c(C)noc4C)ccc3n2CCN2CCOCC2)cc1Cl [Compound 40] | 2 °C | – | – | – | – | – | – | – | – | – | ΔTm at 10 µM (BRD4(1) [1]): < 1 °C
2 | Cc1noc(C)c1-c1ccc2c(c1)nc(CCn1ccc3ccccc31)n2CCN1CCOCC1 [Compound 36] | 8.9 °C | – | – | – | – | – | – | – | – | – | Kd (BRD4(1) [3]; ITC Kd BRD4(1), 15 °C): 660 ± 55 nM; Selectivity for CBP over BRD4(1) (BRD4(1) [3]): 22-fold; Kd (CBP [4]; ITC Kd CBP, 15 °C): 30 ± 2.1 nM
3 | Cc1noc(C)c1-c1ccc2c(c1)nc(CCn1ccc3ccccc31)n2C[C@H](C)N1CCOCC1 [Compound 61] | ~10 °C | 0.862 ± 0.00663 | -8.09 kcal/mol | -9.21 ± 0.0912 kcal/mol | 1.12 kcal/mol | 1.01 ± 0.00517 | -8.58 kcal/mol | -12.5 ± 0.0855 kcal/mol | 3.94 kcal/mol | 239 nM | Kd (BRD4(1) [3]; ITC Ka, BRD4(1)): 685 nM; Kd (BRD4(1) [3]; ITC Kd BRD4(1), 15 °C): 530 ± 74 nM; Selectivity for CBP over BRD4(1) (BRD4(1) [3]): 20-fold; Kd (CBP [4]; ITC Kd CBP, 15 °C): 26 ± 2.6 nM; IC50 (CBP [5]; [10]): < 100 nM
4 | O=C(CCCCCCC(=O)Nc1ccccc1)NO [SAHA, reference compound] | – | – | – | – | – | – | – | – | – | – | FRAP half-time of fluorescence recovery (t1/2), GFP-tagged 3× CBP BRD ([6]; DMSO + SAHA, no BRD inhibitor): 0.79 s
5 | Cc1noc(C)c1-c1ccc2c(c1)nc(CCc1ccc(F)cc1)n2CCN1CCOCC1 [Compound 31] | – | 0.674 ± 0.00495 | -8.35 kcal/mol | -8.02 ± 0.0815 kcal/mol | -0.331 kcal/mol | 0.887 ± 0.00152 | -9.98 kcal/mol | -9.63 ± 0.0319 kcal/mol | -0.346 kcal/mol | 27.7 nM | Kd (BRD4(1) [3]; ITC Ka, BRD4(1)): 478 nM
6 | Cc1noc(C)c1-c1ccc2c(c1)nc(CCc1cccc(F)c1)n2CCN1CCOCC1 [Compound 30] | 7.1 °C | – | – | – | – | – | – | – | – | – | –
7 | COC(Cn1c(CCc2ccccc2)nc2cc(-c3c(C)noc3C)ccc21)OC [Compound 13] | 0.27 °C | – | – | – | – | – | – | – | – | – | IC50 (CBP [5]; read-out: AlphaScreen IC50 CBP): 460000 nM
8 | Cc1noc(C)c1-c1ccc2c(c1)nc(CCc1ccccc1)n2CCN1CCC1 [Compound 14] | 4.4 °C | – | – | – | – | – | – | – | – | – | ΔTm at 10 µM (BRD4(1) [1]): 2.6 °C; IC50 (BRD4(1) [7]): 22000 nM; IC50 (CBP [5]; read-out: AlphaScreen IC50 CBP): 570 nM
9 | COc1ccc(CCc2nc3cc(-c4c(C)noc4C)ccc3n2C[C@H](C)N2CCOCC2)cc1F [Compound 63] | ~10 °C | – | – | – | – | – | – | – | – | – | Kd (BRD4(1) [3]; ITC Kd BRD4(1), 15 °C): 610 ± 54 nM; Selectivity for CBP over BRD4(1) (BRD4(1) [3]): 16-fold; Kd (CBP [4]; ITC Kd CBP, 15 °C): 39 ± 2.9 nM; IC50 (CBP [5]; [10]): < 100 nM
10 | COc1ccc(CCc2nc3cc(-c4c(C)noc4C)ccc3n2CCN2CCOCC2)cc1F [Compound 33] | 9.6 °C | – | – | – | – | – | – | – | – | – | Kd (BRD4(1) [3]; ITC Kd BRD4(1), 15 °C): 440 ± 25 nM; Selectivity for CBP over BRD4(1) (BRD4(1) [3]): 20-fold
11 | Cc1noc(C)c1-c1ccc2c(c1)nc(CCn1ccc3ccccc31)n2C[C@@H](C)N1CCOCC1 [Compound 60] | – | 0.84 ± 0.0113 | -8.30 kcal/mol | -7.46 ± 0.127 kcal/mol | -0.844 kcal/mol | 0.88 ± 0.00202 | -10.0 kcal/mol | -9.59 ± 0.0406 kcal/mol | -0.420 kcal/mol | 26.2 nM | Kd (BRD4(1) [3]; ITC Ka, BRD4(1)): 532 nM
12 | COc1ccc(CCc2nc3cc(-c4c(C)noc4C)ccc3n2C[C@@H](C)N2CCOCC2)cc1F [Compound 62] | – | 0.859 ± 0.00961 | -8.17 kcal/mol | -9.15 ± 0.128 kcal/mol | 0.978 kcal/mol | 1.08 ± 0.0029 | -9.71 kcal/mol | -11.1 ± 0.0496 kcal/mol | 1.37 kcal/mol | 39.4 nM | Kd (BRD4(1) [3]; ITC Ka, BRD4(1)): 606 nM
13 | Cc1noc(C)c1-c1ccc2ncn(Cc3ccc(C#N)cc3)c2c1 [Compound 6] | – | – | – | – | – | – | – | – | – | – | BRD4(1) pIC50 (BRD4(1) [8]): 6.7; FRAP half-time of fluorescence recovery (t1/2), GFP-tagged 3× CBP BRD ([6]; SAHA-treated, compound 0.1 μM): 0.74 s; CBP pIC50 (CBP [9]): < 4.0
14 | Cc1noc(C)c1-c1ccc2c(c1)ncn2Cc1ccc(Cl)cc1 [Compound 7] | – | – | – | – | – | – | – | – | – | – | CBP pIC50 (CBP [9]): 5.7
15 | Cc1noc(C)c1-c1ccc2c(c1)nc(CCc1ccccc1)n2CCN(C)C [Compound 12] | 6.3 °C | – | – | – | – | – | – | – | – | – | ΔTm at 10 µM (BRD4(1) [1]): 2.9 °C; IC50 (CBP [5]; [10]): 501 nM
16 | Cc1noc(C)c1-c1ccc2nc[nH]c2c1 [Compound 5] | – | – | – | – | – | – | – | – | – | – | BRD4(1) pIC50 (BRD4(1) [8]): 5.2; CBP pIC50 (CBP [9]): 5.4
17 | Cc1noc(C)c1-c1ccc2c(c1)nc(CCc1ccccc1)n2CCN1CCSCC1 [Compound 20] | 6.6 °C | – | – | – | – | – | – | – | – | – | ΔTm at 10 µM (BRD4(1) [1]): 3.9 °C; IC50 (BRD4(1) [7]): 9500 nM; IC50 (CBP [5]; read-out: AlphaScreen IC50 CBP): 440 nM
18 | COc1ccc(CCc2nc3cc(-c4c(C)noc4C)ccc3n2CCN2CCOCC2)cc1Cl [Compound 32] | 9 °C | 0.604 ± 0.00325 | -8.32 kcal/mol | -9.99 ± 0.0746 kcal/mol | 1.670 kcal/mol | 1.18 ± 0.00143 | -10.1 kcal/mol | -10.8 ± 0.0290 kcal/mol | 0.760 kcal/mol | 22.3 nM | ITC Ka, BRD4(1) (BRD4(1) [3]): 2.26 ± 0.121 106 M91; Selectivity for CBP over BRD4(1) (BRD4(1) [3]): 17-fold
19 | Cc1ccc(CCc2nc3cc(-c4c(C)noc4C)ccc3n2CCN2CCOCC2)cc1 [Compound 25] | 7.4 °C | 0.987 ± 0.0033 | -8.24 kcal/mol | -8.74 ± 0.0402 kcal/mol | 0.501 kcal/mol | 1.02 ± 0.00208 | -9.63 kcal/mol | -9.70 ± 0.0399 kcal/mol | 0.0674 kcal/mol | 49.5 nM | Kd (BRD4(1) [3]; ITC Ka, BRD4(1)): 546 nM
20 | COc1ccc2c(c1)N(CCCNC(=O)c1cccc3c1N[C@H](C)C(=O)N3)CCC2 [Compound 4] | – | – | – | – | – | – | – | – | – | – | Kd (CBP BRD): 390 nM
21 | Cc1noc(C)c1-c1ccc2c(c1)nc(CCc1ccccc1)n2CCN1CCNCC1 [Compound 19] | 6.5 °C | – | – | – | – | – | – | – | – | – | ΔTm at 10 µM (BRD4(1) [1]): 4 °C; IC50 (BRD4(1) [7]): 7500 nM; IC50 (CBP [5]; read-out: AlphaScreen IC50 CBP): 750 nM
22 | COc1ccc(CCc2nc3cc(-c4c(C)noc4C)ccc3n2CCN2CCOCC2)cc1 [Compound 26] | 8.1 °C | – | – | – | – | – | – | – | – | – | –
23 | Cc1noc(C)c1-c1ccc2c(c1)nc(CC(C)(C)C)n2CCN(C)C [Compound 8] | 4.5 °C | – | – | – | – | – | – | – | – | – | ΔTm at 10 µM (BRD4(1) [1]): 3.2 °C; IC50 (CBP [5]; [10]): 501 nM
24 | Cc1noc(C)c1-c1ccc2c(c1)nc(CCc1nc3ccccc3s1)n2CCN1CCOCC1 [Compound 35] | – | 0.645 ± 0.00594 | -8.10 kcal/mol | -9.34 ± 0.118 kcal/mol | 1.240 kcal/mol | 0.703 ± 0.00135 | -9.94 kcal/mol | -9.30 ± 0.0342 kcal/mol | -0.638 kcal/mol | 30.2 nM | Kd (BRD4(1) [3]; ITC Ka, BRD4(1)): 662 nM
25 | Cc1noc(C)c1-c1ccc(NC[C@H](C)N2CCOCC2)c([N+](=O)[O-])c1 [Compound 57] | – | 1.04 ± 0.0101 | -7.78 kcal/mol | -8.50 ± 0.108 kcal/mol | 0.725 kcal/mol | 0.983 ± 0.00535 | -8.50 kcal/mol | -14.0 ± 0.0994 kcal/mol | 5.72 kcal/mol | 368 nM | Kd (BRD4(1) [3]; ITC Ka, BRD4(1)): 1210 nM
